Broadly, the IC50 is the concentration at which inhibition is half-maximal.

One assay concerns the target human TLR8 (Homo sapiens (Human), UniProt Q9NR97). The assay is described as follows: TLR8 inhibition reporter assay (HEK-Blue SEAP).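 Further: SEAP driven by IFN-β minimal promoter carrying NF-κB and AP-1 sites, compounds dosed 0.05 nM to 50 µM for 22 h, inhibition scaled between agonist-plus-DMSO and reference-inhibitor wells.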
The next assay addresses human TLR7 (Homo sapiens (Human), UniProt Q9NYK1). The assay is described as follows: TLR7 inhibition reporter assay (HEK-Blue SEAP). Format: cell-based. In general terms: In a reporter assay the amount or activity of a reporter protein is the signal.
The target in another assay is human TLR9 (Homo sapiens (Human), UniProt Q9NR96). The assay is described as follows: TLR9 inhibition reporter assay (HEK-Blue SEAP).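 Further: SEAP driven by an IFN-β minimal promoter with NF-κB and AP-1 sites, read after 22 h, compounds dosed 0.05 nM–50 µM, inhibition scaled between agonist plus DMSO and reference-inhibitor wells.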
[1] abbreviates: read-out: TLR8 IC50, HEK-Blue human TLR8 cells, R848 15.9 μM.
Setting [2] is: HEK-Blue human TLR7 cells, gardiquimod 7.5 μM.
[3] abbreviates: read-out: TLR9 IC50, HEK-Blue human TLR9 cells, ODN2006 5 nM.
[4] abbreviates: read-out: TLR8 IC50, HEK-Blue cells overexpressing human TLR8, R848 15.9 μM stimulation, SEAP reporter.
[5] abbreviates: HEK-Blue cells overexpressing human TLR7, gardiquimod 7.5 μM stimulation, SEAP reporter.
The mark [6] stands for this setting: read-out: TLR9 IC50, HEK-Blue cells overexpressing human TLR9, ODN2006 5 nM stimulation, SEAP reporter.
Where [7] appears, read: read-out: TLR8 IC50, HEK-Blue cells overexpressing human TLR8, SEAP reporter, R848 15.9 μM.
Setting [8] is: HEK-Blue cells overexpressing human TLR7, SEAP reporter, gardiquimod 7.5 μM.
Setting [9] is: read-out: TLR9 IC50, HEK-Blue cells overexpressing human TLR9, SEAP reporter, ODN2006 5 nM.

SMILES strings stand for the structures. Read-outs that look alike come from different tables or passages of the source. A value given as a limit tells only on which side of the number the result lay.

Sequence of human TLR7 (Q9NYK1 27-1049): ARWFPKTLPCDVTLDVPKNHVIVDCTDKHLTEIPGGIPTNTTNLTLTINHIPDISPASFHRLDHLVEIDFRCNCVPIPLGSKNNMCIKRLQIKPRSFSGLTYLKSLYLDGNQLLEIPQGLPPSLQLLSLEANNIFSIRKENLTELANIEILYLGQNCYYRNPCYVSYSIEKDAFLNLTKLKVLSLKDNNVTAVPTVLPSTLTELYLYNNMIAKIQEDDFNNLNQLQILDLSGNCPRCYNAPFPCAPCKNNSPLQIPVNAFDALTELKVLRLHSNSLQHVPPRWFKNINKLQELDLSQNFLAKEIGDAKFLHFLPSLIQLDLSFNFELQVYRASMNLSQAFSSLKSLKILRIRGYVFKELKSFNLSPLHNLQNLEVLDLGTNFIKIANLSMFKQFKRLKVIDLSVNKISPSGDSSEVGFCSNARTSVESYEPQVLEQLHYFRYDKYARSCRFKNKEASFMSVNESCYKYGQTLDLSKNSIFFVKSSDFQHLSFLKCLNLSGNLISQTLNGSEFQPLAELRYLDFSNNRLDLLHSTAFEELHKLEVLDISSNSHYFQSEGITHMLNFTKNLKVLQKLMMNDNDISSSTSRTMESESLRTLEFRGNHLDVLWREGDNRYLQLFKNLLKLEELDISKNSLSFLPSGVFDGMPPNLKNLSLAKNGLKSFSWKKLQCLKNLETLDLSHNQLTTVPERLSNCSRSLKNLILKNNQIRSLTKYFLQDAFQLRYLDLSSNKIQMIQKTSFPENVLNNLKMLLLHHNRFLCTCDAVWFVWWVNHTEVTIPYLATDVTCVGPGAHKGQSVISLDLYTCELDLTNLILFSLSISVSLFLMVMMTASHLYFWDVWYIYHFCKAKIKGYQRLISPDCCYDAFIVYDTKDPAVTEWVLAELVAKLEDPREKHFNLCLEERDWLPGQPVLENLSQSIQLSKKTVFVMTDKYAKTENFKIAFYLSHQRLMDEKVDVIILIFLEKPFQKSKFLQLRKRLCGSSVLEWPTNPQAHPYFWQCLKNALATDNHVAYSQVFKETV
Sequence of human TLR9 (Q9NR96 26-1032): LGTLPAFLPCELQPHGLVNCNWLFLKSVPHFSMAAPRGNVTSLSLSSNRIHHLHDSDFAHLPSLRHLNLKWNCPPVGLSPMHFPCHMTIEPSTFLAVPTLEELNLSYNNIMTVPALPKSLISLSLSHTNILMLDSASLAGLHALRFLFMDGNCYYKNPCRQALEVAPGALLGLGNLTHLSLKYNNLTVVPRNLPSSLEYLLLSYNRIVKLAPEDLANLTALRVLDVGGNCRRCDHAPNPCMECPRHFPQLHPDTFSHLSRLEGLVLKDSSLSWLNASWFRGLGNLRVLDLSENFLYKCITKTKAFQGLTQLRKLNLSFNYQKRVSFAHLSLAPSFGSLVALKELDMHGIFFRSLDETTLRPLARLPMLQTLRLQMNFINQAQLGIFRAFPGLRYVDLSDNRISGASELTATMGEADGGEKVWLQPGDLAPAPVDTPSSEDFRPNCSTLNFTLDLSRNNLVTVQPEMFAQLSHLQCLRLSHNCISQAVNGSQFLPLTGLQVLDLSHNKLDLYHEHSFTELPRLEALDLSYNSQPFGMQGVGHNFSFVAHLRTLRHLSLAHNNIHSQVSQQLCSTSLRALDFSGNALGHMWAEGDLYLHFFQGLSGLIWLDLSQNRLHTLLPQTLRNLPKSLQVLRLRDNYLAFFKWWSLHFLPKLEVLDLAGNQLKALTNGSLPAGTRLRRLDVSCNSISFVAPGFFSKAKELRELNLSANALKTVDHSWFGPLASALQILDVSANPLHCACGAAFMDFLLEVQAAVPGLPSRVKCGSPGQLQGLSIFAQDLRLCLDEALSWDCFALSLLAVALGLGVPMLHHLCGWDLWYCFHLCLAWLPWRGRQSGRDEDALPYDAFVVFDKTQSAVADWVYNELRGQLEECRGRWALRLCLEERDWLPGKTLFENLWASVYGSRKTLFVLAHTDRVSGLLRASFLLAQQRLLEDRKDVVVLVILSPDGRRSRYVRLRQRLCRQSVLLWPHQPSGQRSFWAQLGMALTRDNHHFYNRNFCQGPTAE
Sequence of human TLR8 (Q9NR97 27-1041): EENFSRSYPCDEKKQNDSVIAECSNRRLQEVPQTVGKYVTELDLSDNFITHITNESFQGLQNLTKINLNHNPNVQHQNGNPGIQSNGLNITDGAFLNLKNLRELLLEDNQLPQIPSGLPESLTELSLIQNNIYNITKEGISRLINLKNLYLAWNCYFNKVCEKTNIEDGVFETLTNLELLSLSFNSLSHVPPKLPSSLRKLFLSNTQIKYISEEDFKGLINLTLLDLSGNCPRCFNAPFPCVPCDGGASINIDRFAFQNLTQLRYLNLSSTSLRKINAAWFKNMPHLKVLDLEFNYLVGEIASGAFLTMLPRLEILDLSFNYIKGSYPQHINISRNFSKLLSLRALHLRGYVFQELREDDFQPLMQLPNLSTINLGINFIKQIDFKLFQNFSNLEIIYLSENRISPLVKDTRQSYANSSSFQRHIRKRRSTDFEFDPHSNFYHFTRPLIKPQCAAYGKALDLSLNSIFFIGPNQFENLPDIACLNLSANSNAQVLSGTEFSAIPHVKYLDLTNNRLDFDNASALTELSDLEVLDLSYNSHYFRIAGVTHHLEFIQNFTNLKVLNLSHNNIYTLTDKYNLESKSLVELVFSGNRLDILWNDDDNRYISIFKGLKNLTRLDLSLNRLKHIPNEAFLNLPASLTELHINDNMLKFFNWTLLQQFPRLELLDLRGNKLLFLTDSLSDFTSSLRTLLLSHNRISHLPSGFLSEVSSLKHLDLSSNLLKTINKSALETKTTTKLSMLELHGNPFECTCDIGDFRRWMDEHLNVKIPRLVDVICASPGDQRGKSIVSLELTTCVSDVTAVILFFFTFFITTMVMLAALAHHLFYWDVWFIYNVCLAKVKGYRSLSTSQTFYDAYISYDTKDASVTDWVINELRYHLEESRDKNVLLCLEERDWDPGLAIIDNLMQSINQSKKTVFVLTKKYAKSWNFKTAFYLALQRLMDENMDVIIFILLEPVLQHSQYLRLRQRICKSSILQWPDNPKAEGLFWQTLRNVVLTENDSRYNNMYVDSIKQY
Experimental for human TLR7: HEK-Blue™-cells (Invivogen) overexpressing human TLR7, TLR8 or TLR9 receptors were used for screening inhibitors of these receptors using an inducible SEAP (secreted embryonic alkaline phosphatase) reporter gene under the control of the IFN-β minimal promoter fused to five NF-κB and AP-1-binding sites. Briefly, cells are seeded into Greiner 384 well plates (15000 cells per well for TLR7, 20,000 for TLR8 and 25,000 for TLR9) and then treated with test compounds in DMSO to yield a final dose response concentration range of 0.05 nM-50 μM. After a 30 minute compound pre-treatment at room temperature, the cells are then stimulated with a TLR7 ligand (gardiquimod at a final concentration of 7.5 μM), TLR8 ligand (R848 at a final concentration of 15.9 μM) or TLR9 ligand (ODN2006 at a final concentration of 5 nM) to activate NF-κB and AP-1 which induce the production of SEAP. After a 22 hour incubation at 37° C., 5% CO2, SEAP levels are determined with the addition of HEK-Blue™ Detection reagent (Invivogen), a cell culture medium that allows for detection of SEAP, according to manufacturer's specifications.

Take `CCN(C1CCC(c2ccc3[nH]c(-c4cn5ncnc5c(C)c4C)c(C(C)C)c3n2)CC1)C1COC1` (stereo not drawn) [Example 1039]: the IC50 at human TLR8 (setting [1]) turned out to be 6.4 nM; against human TLR7 (setting [2]), 7.2 nM; on human TLR9 (setting [3]), 3070 nM.

Take `CCN(C)CC(=O)N1CCN(c2ccc3[nH]c(-c4cn5ncnc5c(C)c4C)c(C(C)C)c3n2)[C@@H](C)C1` [Example 932]: the IC50 at human TLR8 (setting [1]) amounted to 10 nM; at human TLR7 (setting [2]) it was 0.66 nM; at human TLR9 (setting [3]), 14300 nM.

Turning to `Cc1c(-c2[nH]c3ccc(N4CCN(C(=O)CN)CC4)nc3c2C(C)C)cn2ncnc2c1C` [Example 832], the results for the IC50 on human TLR8 (setting [1]), on human TLR7 (setting [2]) and on human TLR9 (setting [3]) were 2.3 nM, 4 nM and 16800 nM, respectively.

As for `COc1cc(-c2[nH]c3ccc(C4CCC(NCc5cnc(C)cn5)CC4)nc3c2C(C)C)cn2ncnc12` (stereo not drawn) [Example 190], the half-inhibitory concentration (IC50) on human TLR8 (setting [4]) was determined as 2.8 nM; at human TLR7 (setting [5]), 0.8 nM; on human TLR9 (setting [6]), 353 nM.

Turning to `COc1cc(-c2[nH]c3cc(C)c(C4CCC(N(C)CCC#N)CC4)nc3c2C(C)C)cn2ncnc12` (stereo not drawn) [Example 339], the IC50 on human TLR8 (setting [4]) was 7.1 nM; on human TLR7 (setting [5]), 0.2 nM; on human TLR9 (setting [6]) it was 5890 nM.

As for `CC(C)c1c(-c2cn(C)c3ncccc23)[nH]c2ccc(N3CCC(NCCS(C)(=O)=O)CC3)nc12` [Example 53], the IC50 on human TLR8 (setting [4]) came to 0.23 nM; on human TLR7 (setting [5]), 0.62 nM; at human TLR9 (setting [6]), 1990 nM.

As to `Cc1c(-c2[nH]c3ccc(C4CCC(N5CC(C)(C)C5)CC4)nc3c2C(C)C)cn2ncnc2c1C` (stereo not drawn) [Example 1052], the IC50 at human TLR8 (setting [1]) is 17 nM; on human TLR7 (setting [2]), 8.9 nM; at human TLR9 (setting [3]) it was 5920 nM.

Turning to `COc1cc(-c2[nH]c3ccc(N4CCN(C5CCN(C(C)=O)CC5)CC4)nc3c2C(C)C)cn2ncnc12` [Example 121], the IC50 amounted to 0.8 nM at human TLR8 (setting [4]), 3.4 nM at human TLR7 (setting [5]) and 6350 nM at human TLR9 (setting [6]).

As to `CCN(C)C1CCN(c2ccc3[nH]c(-c4cn5ncnc5c(C)c4C)c(C(C)C)c3n2)CC1` [Example 66], the IC50 was determined as 0.98 nM at human TLR8 (setting [4]), 1.4 nM at human TLR7 (setting [5]) and 3870 nM on human TLR9 (setting [6]).

`Cc1c(-c2[nH]c3ccc(C4CCC(N5CC(C(=O)N(C)C)C5)CC4)nc3c2C(C)C)cn2ncnc2c1C` (stereo not drawn) [Example 1050]: the values for the IC50 at human TLR8 (setting [1]), at human TLR7 (setting [2]) and at human TLR9 (setting [3]) were 4.8 nM, 2.8 nM and 2660 nM, respectively.

Turning to `COc1cc(-c2[nH]c3cc(C)c(C4CCC(NCC5(C)COC5)CC4)nc3c2C(C)C)cn2ncnc12` (stereo not drawn) [Example 315], the IC50 at human TLR8 (setting [4]) is 29 nM; against human TLR7 (setting [5]), 1.8 nM; on human TLR9 (setting [6]), 5220 nM.

On to `Cc1c(-c2[nH]c3ccc(N4CCNCC45CC5)nc3c2C(C)C)cn2ncnc2c1C` [Example 982], for which the IC50 amounted to 20 nM at human TLR8 (setting [1]), 9.8 nM against human TLR7 (setting [2]) and 32800 nM on human TLR9 (setting [3]).

As to `COc1cc(-c2[nH]c3ccc(C4CC(NC5CCOCC5)C4)nc3c2C(C)C)cn2ncnc12` (stereo not drawn) [Example 632], the results for the IC50 at human TLR8 (setting [7]), against human TLR7 (setting [8]) and at human TLR9 (setting [9]) were 2.2 nM, 3.1 nM and 439 nM, respectively.

`CC(C)c1c(-c2cn(CC#N)c3ncccc23)[nH]c2ccc(C3CCC(NCCS(C)(=O)=O)CC3)nc12` (stereo not drawn) [Example 273]: the concentration for half-maximal inhibition (IC50) is 66 nM on human TLR8 (setting [4]), 75 nM against human TLR7 (setting [5]) and 1110 nM at human TLR9 (setting [6]).

Take `CCN(C)CC(=O)N1C[C@H](C)N(c2ccc3[nH]c(-c4cn5ncnc5c(C)c4C)c(C(C)C)c3n2)C[C@H]1C` [Example 893]: the IC50 was 0.74 nM on human TLR8 (setting [1]), 0.34 nM at human TLR7 (setting [2]) and 7440 nM on human TLR9 (setting [3]).

As to `CC(C)c1c(-c2cn(CCS(C)(=O)=O)c3ncccc23)[nH]c2ccc(C3CCC(NCC(=O)N(C)C)CC3)nc12` (stereo not drawn) [Example 261], the results for the IC50 on human TLR8 (setting [4]), against human TLR7 (setting [5]) and at human TLR9 (setting [6]) were 90 nM, 262 nM and 381 nM, respectively.

Consider `Cc1c(-c2[nH]c3ccc(N4CCC(NC5COC5)C4)nc3c2C(C)C)cn2ncnc2c1C` (racemic) [Example 164, 1-(2-(7,8-dimethyl-[1,2,4]triazolo[1,5-a]pyridin-6-yl)-3-isopropyl-1H-pyrrolo[3,2-b]pyridin-5-yl)-N-(oxetan-3-yl)pyrrolidin-3-amine], for which the results for the IC50 on human TLR8 (setting [4]), on human TLR7 (setting [5]) and at human TLR9 (setting [6]) were 2 nM, 33 nM and 19800 nM, respectively.

For `COc1cc(-c2[nH]c3ccc(C4CNCCO4)nc3c2C(C)C)cn2ncnc12` (stereo not drawn) [Example 666], the IC50 at human TLR8 (setting [7]) amounted to 1.6 nM; on human TLR7 (setting [8]), 0.73 nM; on human TLR9 (setting [9]) it was 6560 nM.

Regarding `COc1cc(-c2[nH]c3ccc(N4CCN(CCC(N)=O)CC4)nc3c2C(C)C)cn2ncnc12` [Example 137], the IC50 turned out to be 1.3 nM at human TLR8 (setting [4]), 5.6 nM against human TLR7 (setting [5]) and 8450 nM on human TLR9 (setting [6]).

Turning to `Cc1c(-c2[nH]c3ccc(N4C[C@H](C)N(C(=O)CN(C)C)C[C@@H]4C)nc3c2C(C)C)cn2ncnc2c1C` [Example 788], the IC50 on human TLR8 (setting [7]) is 3.2 nM; against human TLR7 (setting [8]), 2.1 nM; at human TLR9 (setting [9]), 8300 nM.

As for `Cc1c(-c2[nH]c3ccc(N4CCC(N(Cc5c[nH]nn5)Cc5c[nH]nn5)CC4)nc3c2C(C)C)cn2ncnc2c1C` [Example 48], the figures for the IC50 on human TLR8 (setting [4]), at human TLR7 (setting [5]) and on human TLR9 (setting [6]) were 9.3 nM, 7.4 nM and 31300 nM, respectively.

`Cc1c(-c2[nH]c3ccc(N4[C@@H]5CC[C@H]4CN(C(=O)CN(CCO)C(C)(C)C)C5)nc3c2C(C)C)cn2ncnc2c1C` [Example 925]: the values for the IC50 on human TLR8 (setting [1]), at human TLR7 (setting [2]) and on human TLR9 (setting [3]) were 9.2 nM, 0.79 nM and 10100 nM, respectively.

`Cc1c(-c2[nH]c3ccc(N4CC(N(C)C)C4)nc3c2C(C)C)cn2ncnc2c1C` [Example 12]: the IC50 worked out at 1.6 nM at human TLR8 (setting [4]), 10 nM on human TLR7 (setting [5]) and 10100 nM on human TLR9 (setting [6]).

Turning to `Cc1c(-c2[nH]c3ccc(N4CCN(CCC(N)=O)[C@@H](C)C4)nc3c2C(C)C)cn2ncnc2c1C` [Example 791], the IC50 on human TLR8 (setting [7]) was determined as 1.1 nM; on human TLR7 (setting [8]), 5.3 nM; on human TLR9 (setting [9]) it was 18100 nM.

As to `[2H]C([2H])([2H])N(C([2H])([2H])[2H])C([2H])([2H])C(=O)N1C([2H])([2H])C([2H])([2H])N(c2ccc3[nH]c(-c4cn5ncnc5c(C)c4C)c(C(C)C)c3n2)C([2H])([2H])C1([2H])[2H]` (single isomer, unassigned) [Example 891], the IC50 at human TLR8 (TLR8 IC50, HEK-Blue human TLR8 cells, R848 15.9 μM) was determined as 0.93 nM; at human TLR7 (setting [2]), 0.64 nM; at human TLR9 (TLR9 IC50, HEK-Blue human TLR9 cells, ODN2006 5 nM) it was 18000 nM.

Consider `Cc1c(-c2[nH]c3ccc(N4CCN(C(=O)CN5CCC5)CC4)nc3c2C(C)C)cn2ncnc2c1C` [Example 146], for which the IC50 is 2.5 nM at human TLR8 (setting [4]), 5.6 nM against human TLR7 (setting [5]) and 12900 nM at human TLR9 (setting [6]).

With `Cc1cc(-c2[nH]c3ccc(C4CCN(C(=O)CN(C)C)CC4)nc3c2C(C)C)cn(C)c1=O` [Example 531], the IC50 at human TLR8 (setting [7]) is 21 nM; against human TLR7 (setting [8]), 19 nM; at human TLR9 (setting [9]), 1290 nM.

For `COc1cc(-c2[nH]c3ccc(OCC4CCN(CCS(C)(=O)=O)CC4)nc3c2C(C)C)cn2ncnc12` [Example 604, 6-(3-isopropyl-5-((1-(2-(methylsulfonyl)ethyl)piperidin-4-yl)methoxy)-1H-pyrrolo[3,2-b]pyridin-2-yl)-8-methoxy-[1,2,4]triazolo[1,5-a]pyridine], the IC50 at human TLR8 (setting [7]) came to 2.5 nM; on human TLR7 (setting [8]) it was 2.8 nM; at human TLR9 (setting [9]) it was 5910 nM.

For the compound `CNC(=O)CN(C)C1CCC(c2ccc3[nH]c(-c4cc(OC)c5ncnn5c4)c(C(C)C)c3n2)CC1` (stereo not drawn) [Example 210], the values for the IC50 at human TLR8 (setting [4]), against human TLR7 (setting [5]) and at human TLR9 (setting [6]) were over 3120 nM, over 3120 nM and over 50000 nM, respectively.

These data come from patent publication US10544143B2, “4-azaindole compounds” (BRISTOL-MYERS SQUIBB COMPANY, priority 2017, dated 2020).
